Assay results taken from patent US5705649A, “Protein staining compositions and methods” (Promega Corporation, priority 1995, dated 1998).
Blank lines part the entries; values can stand above or below the compound they belong to.

Columns and labels:
[1] = tested on: Promega Mid Range Molecular Weight Standards; assay: Post-electrophoretic staining of gels with octyl and dodecyl derivatives of MDPF
Protocol: A fifteen well, 12% gel was made as described in example 5 and was loaded with diluted Promega Mid Range Molecular Weight Standards to produce lanes containing samples having 200, 100, 80, 60, 40, 20 and 10 ng of protein per band. The gel was run as described in example 5 except that Promega Green 1 was not added to the cathode buffer. After electrophoresis, the gel was cut between lanes to produce gel segments containing fractionated protein samples at each of the concentrations listed above and these were placed in 30% methanol for 25-30 min at room temperature. The stock stain solutions of Example 33 were then diluted into distilled water at a concentration of 0.5% (v/v), and 50 ml of these solutions were used to stain the gels. After 1 hr incubation, the gels were visualized and photographed using a transilluminator. […] The gels were then placed in 5% methanol and allowed to destain overnight.
After overnight destaining, the gel segments were again placed upon a transilluminator, visualized and photographed. […] Nonetheless, these derivatives can be used for sensitive post-electrophoretic staining of proteins in gels.

[2] = tested on: Promega Mid Range Molecular Weight Standards; assay: In-gel staining with octyl and dodecyl derivatives of MDPF; details: stain stock in cathode buffer and wells
Protocol: (§1) Two 10-well, 12% gels were made as described in Example 5 and were loaded with diluted Promega Mid Range Molecular Weight Standards to produce lanes containing 200, 100, 80, 60, 40, 20, 10, and 5 ng of protein per band following fractionation by electrophoresis. These protein levels were applied to the gels in 10 μl of loading buffer described in Example 5 and then 10 μl of a 1:100 dilution of the derivative stock solution (Example 33) into a solution of 20% glycerol, 1% sodium dodecyl sulfate was added to the wells. The gels were then run as described in Example 5 except that 0.5 ml of derivative stain stock was added to the cathode buffer in the gel and the Promega Green 1 dye was omitted from the solution. The gels were placed on a transilluminator following electrophoresis and were observed visually and photographed as described above. Staining of the protein bands was seen down to 80 ng of protein per band for the dodecyl derivative for all proteins and, for the 31 kdalton standard (carbonic anhydrase) down to 60 ng/band. Staining of the bands was seen to 60 ng/band for all proteins with the octyl derivative, with the carbonic anhydrase being detectable down to 40 ng per band. Therefore both stains can be used for in-gel staining of proteins.

[3] = tested on: carbonic anhydrase; assay: as above; details: 31 kdalton standard; stain stock in cathode buffer and wells
Protocol: as §1

[4] = tested on: Promega Mid Range Molecular Weight Standards; assay: Post-electrophoretic detection of protein with purified dansyl derivatives
Protocol: Samples of the eluates from purification of the derivatives were diluted 20-fold with ethanol and the absorption of the resulting solutions from 400 to 220 nm was measured. The absorption of the solutions at 328 nm was used as an indication of the concentration of the derivative in the staining studies in Example 27.
Several SDS-PAGE minigels were made as described in Experiments with Gene Fusions, Silhavy, Berman, Enquist, supra, using the SDS concentrations described by the authors. Samples of Promega Mid Range Molecular Weight Standards were diluted into the loading solution described in the reference above to produce solutions containing 200, 100, 50, 25, and 12.5 ng of each protein species in 10 μl of solution. These solutions were loaded onto the gels and the samples were fractionated in the gels by application of 10 mA per gel until the tracking dye for the samples reached the bottom of the gel. The gels were then rinsed 1 min in distilled water, 15 min in 10% trichloracetic acid (w/v), and then for 15 min in 10% methanol (v/v). The gel segments, approximately 5×6 cm containing the fractionated standard, were then transferred to a 2% ethanol solution (50 ml) containing 0.05 OD328 -equivalent of each of the dansyl derivatives (see Example 26).
The gel segments were returned to their respective staining solutions and were incubated overnight. The following morning, all of the gel segments were again visualized on the transilluminator and photographed as described above. […] In general, relatively equivalent staining of bands was obtained as determined by the strength of the fluorescent signal observed for the various fractionated species.

[5] = tested on: Promega Mid Range Molecular Weight Standards; assay: Detection of fractionated protein in SDS-PAGE gels using dansyl derivatives made in acetone
Protocol: Several 15-well, SDS-PAGE minigels were poured as described in Example 27 and loaded with Promega Mid Range Molecular Weight Standards diluted as described in Example 27 to provide samples containing 1000, 300, 100, 50, 25, 12.5, and 6.25ng of each protein per band in separate lanes of the gel. The samples were fractionated by application of 20 mA per gel until the tracking dye reached the bottom of the gel. All the gels were placed in 10% trichloroacetic acid for 5 min and then incubated for 10 min in 10% (v/v) methanol. The gels were then incubated in a 10% methanol solution containing 2% (v/v) of the derivative eluates (dissolved in 50 ml ethanol) described in Example 28. The gels were transferred to a transilluminator and both visualized and photographed after two hours of staining. The following observations were made. Only the lanes containing 1000 and 300ng of protein per band were visible in the gel incubated with the n-butyl dansyl derivative. The lanes containing the 1000, 300, 100, 50, 25ng per band were visible in the gel incubated with the n-hexyl derivative as were some of the bands in the 12.5 ng per band lane.
After overnight incubation in the stain solutions, the gels were re-observed and rephotographed.
The gels were then placed in 1% acetic acid to remove any unbound stain and rephotographed after three hours of incubation in this solution at room temperature.

[6] = tested on: Promega Mid-Range Molecular Weight Standards; assay: Optimization of post-electrophoretic staining with dodecyl dansyl stain
Protocol: In order to determine if alternative staining conditions would improve the detection of protein by fluorescent staining with the dodecyl dansyl stain, the following experiment was performed. Two 12% SDS-PAGE minigels from Bio-Rad Corporation were used to fractionate samples of diluted Promega Mid-Range Molecular Weight Standards which were loaded into alternate lanes of the gel to produce protein bands containing 25 and 5 ng of each protein per band in adjacent lanes. The gels were run as recommended by the manufacturer in Bio-Rad Miniprotean II electrophoresis units and sliced to produce two lane segments containing one lane each of the 25 and 5 ng sample lanes. One slice was placed in each of the following solutions (50 ml) followed by incubation of the segment in a second 50 ml of the solution containing 200 μl of dodecyl dansyl derivative solution (in 50 ml ethanol) of Example 28: distilled water; 1% acetic acid; 1% trichloroacetic acid; 5M sodium chloride; 0.5M Tris base; 0.5M ammonium bicarbonate, pH 5.0; 2M Tris pH8.0; 0.05M sodium hydroxide; and 10% ethanol. The gels were allowed to stain overnight at room temperature and then were observed on a transilluminator to allow visualization and photography of the fluorescently stained bands as described in Example 27. […] It was thought that this is due to an inability of the particular stain derivative used to fluoresce under the highly acidic condition produced in the trichloroacetic acid solution.
In order to determine if the stain remained intact in these solutions and to standardize the conditions for the stains, the gel segments were then incubated in 50 ml of distilled water. After 1 hr, the segments were re-observed and re-photographed. […] Thus, staining sensitivity is dependent upon staining conditions and mildly acidic conditions appear to improve the sensitivity of staining.

[7] = tested on: Promega Mid Range Molecular Weight standard; assay: Optimization of staining with dodecyl dansyl stain, acetic acid/ethanol fixing and staining
Protocol: Two 12% SDS-PAGE gels were run with diluted Promega Mid Range Molecular Weight standard to produce samples of proteins at 20, 10, and 5 ng of protein per band present in the gels. The gels were made as in Example 27 and proteins were fractionated on the gels in a BioRad Miniprotean II gel system as recommended by the manufacturer. The gels were cut to produce segments of gel containing three lanes of samples containing one lane each of the protein concentrations described above and placed for 15 min in 50 ml of one of the following fixative solutions: 30% ethanol, 20% acetic acid; 40% ethanol, 10% acetic acid; 40% ethanol, 20% acetic acid; 50% ethanol, 10% acetic acid; and 50% ethanol, 20% acetic acid. After the 15 min incubation, the gels were transferred into another 50 ml of the same fixative solution containing 50 μl of dodecyl dansyl stain solution (in 50 ml ethanol, Example 28). After 3 hrs., the segments were placed in 50 ml of 50 mM Tris-Cl, pH8.0, for 5 min and then were visualized on a transilluminator and photographed.
After visualization, the segments were returned to their respective staining solutions and allowed to incubate overnight. The following morning, the segments were visualized and photographed directly on a transilluminator without prior incubation in a different solution.

[8] = tested on: Promega Mid-Range Molecular Weight Markers; assay: In-gel staining with dodecyl dansyl stain; details: 0.1% (v/v) stain in cathode buffer
Protocol: In order to determine if in-gel staining with dodecyl dansyl stain could be performed, a gel containing the concentrations of reagents in the gel buffers and running buffers listed in Example 5 was made and run as described in Example 5 with two exceptions: 1) dodecyl dansyl stain (in 50 ml ethanol, Example 28) was added to the cathode buffer at 0.1% (v/v) instead of Promega Green 1; 2) Promega Mid-Range Molecular Weight markers were diluted into 1× loading buffer as described in Example 5 and were loaded on the gel to produce lanes containing each protein at concentrations from 1000 ng/lane to 3.1 ng/lane. Following electrophoresis, the gel was placed directly on a transilluminator and visualized and photographed as described above. […] Thus, staining while the gel is running can be performed with the dodecyl dansyl stain and is particularly favorable for protein species with low mobilities.

[9] = tested on: Promega Mid-Range Molecular Weight Standards; assay: Post-electrophoretic detection of protein using NBODY derivatives; details: crude dye solution in 5% acetic acid, 20% ethanol, one hour
Protocol: Promega Mid-Range Molecular Weight Standards were diluted and heated as described in Example 27 to produce solutions containing 125, 25, 5 and 1 ng of protein per band in 10 microliters of solution. A 10% Tris Glycine, precast polyacrylamid gel from Novex Corp. (San Diego, Calif., USA, Cat. No. EC 6075.) was loaded with 10 microliters of the just described, diluted molecular weight standard solutions in lanes so that two lanes, each with the same diluted standard solution, were separated by a blank lane. The gel was developed using conditions recommended by the manufacturer and following development, the gel was cut in the blank lane. The segments were placed in 50 ml of 5% acetic acid, 20% ethanol. Six hundred microliters of the NBODY-C12 reaction mixture from Example 40 was added to the solution with one of the segments of a pair (of lanes with the same protein molecular weight standard solution) and three hundred microliters of the NBODY-C16 reaction mixture from Example 40 was added to the solution with the other segment of the same pair. After one hour of incubation, the gel segments were photographed on a transilluminator as described in example 27. Protein bands were detected in the lanes containing the 125 and 25 ng of protein per band using this method and the crude dye solutions from Example 40.

[10] = after overnight destaining in 5% methanol

lowest carbonic anhydrase per band stained [3]: 40 ng
SMILES: CCCCCCCCN=C1C(c2ccccc2)=COC1(OC)c1ccccc1 (stereo not drawn) [octyl MDPF derivative]
lowest protein per band stained (most of the species) ([1]; 0.5% (v/v) stain in water, 1 hr): 20 ng
retention of fluorescent staining [1, 10]: almost all of the fluorescent staining of the octyl MDPF derivative stained gel had been lost
lowest protein per band stained, all proteins [2]: 60 ng

lowest carbonic anhydrase per band stained [3]: 60 ng
SMILES: CCCCCCCCCCCCN=C1C(c2ccccc2)=COC1(OC)c1ccccc1 (stereo not drawn) [dodecyl MDPF derivative]
lowest protein per band stained [1, 10]: 20 ng
lowest protein per band stained, all proteins [2]: 80 ng

SMILES: CCCCCCCCCCCCNS(=O)(=O)c1cccc2c(N(C)C)cccc12 [dodecyl dansyl derivative]
staining quality compared to the amino or butyl derivatives [4]: much better stains compared to the amino or butyl derivatives
lowest protein amount with visible bands (several of the bands) ([4]; 15 min staining): 100 ng
visibility of protein bands ([4]; overnight staining): easily visible
lowest protein per band visible ([5]; 2% (v/v) eluate in 10% methanol, two hours of staining): 300 ng
protein per band at which most of the protein species were visible ([5]; after 1% acetic acid, three hours): 6.25 ng
protein per band at which at least some of the bands could be visualized ([5]; overnight staining): 12.5 ng
staining ([6]; all other staining solutions, overnight): No other staining solution allowed visualization of the fractionated protein species at this point
protein per band displayed as fluorescent bands ([6]; stain in 0.5M ammonium bicarbonate, pH 5.0, overnight): 25 ng
protein per band displayed as fluorescent bands ([6]; stain in 1% acetic acid, overnight): 25 ng
staining ([6]; stain in 1% trichloroacetic acid, overnight): neither protein detection nor background staining
staining ([6]; stain in 2M Tris pH 8.0, overnight): much weaker staining
staining after distilled water ([6]; stained in 0.5M ammonium bicarbonate, pH 5.0, then 1 hr water): Staining was seen
staining after distilled water ([6]; stained in 1% acetic acid, then 1 hr water): greater fluorescence
staining after distilled water ([6]; stained in 1% trichloroacetic acid, then 1 hr water): greater fluorescence
staining after distilled water ([6]; stained in 2M Tris pH 8.0, then 1 hr water): Staining was seen
visibility of protein bands ([7]; 3 hrs, 30 or 40% ethanol and 10 or 20% acetic acid, 20, 10, 5 ng per band): faintly visible
level of protein per band detected ([7]; overnight staining in ethanol/acetic acid): ≤ 5 ng
detection of protein species migrating more than halfway through the gel [8]: not easily detected
lowest protein per band seen (many of the heavier molecular weight species) [8]: 12.5 ng

SMILES: CCCCCCCCCCCCCCCCNC(=O)CCCCCNc1ccc([N+](=O)[O-])c2nonc12 [NBODY-C16]
lowest protein per band detected [9]: 25 ng
